These molecules were tested on MCF7 cells (ATCC #HTB-22) (assay: Cellular growth inhibition assay, MCF7 cells purchased from ATCC). Settings: Homo sapiens, MCF7, 144 h, Table 8-A; MCF7 cells purchased from ATCC; six days; CellTiter-Glo; read-out: GI50.
Assay type: cell-based
Method in brief: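 MCF7 cells in RPMI 1640 with 10% FBS and 0.2 U/ml insulin, seeded at 1,500 cells/well (ATCC) or 225 cells/well (ECACC). Compounds added 24 h later, then 6 days at 37° C. Viability by CellTiter-Glo 2.0 luminescence. GI50 from four-parameter fit.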
Cc1sc2c(c1C)C(c1ccc(N3CCC(O)(CN4CCN(c5ccc([C@H]6c7ccc(O)cc7CC[C@H]6c6c(F)cccc6F)c(F)c5)CC4)CC3)cc1)=N[C@@H](C)c1nnc(C)n1-2 [III-294] was tested, and the GI50 was 50 to 500 nM. Molecule Cc1sc2c(c1C)C(c1ccc(N3CC4(CC(CN5CCN(c6cc(F)c([C@H]7c8ccc(O)cc8CC[C@H]7c7ccc(F)cc7)c(F)c6)CC5)C4)C3)cc1)=N[C@@H](C)c1nnc(C)n1-2 [III-295] has a GI50 of 50 to 500 nM. Cc1sc2c(c1C)C(c1ccc(N3CC4(CC(CN5CCN(c6cc(F)c([C@@H]7c8ccc(O)cc8CC[C@@H]7c7ccc(F)cc7)c(F)c6)CC5)C4)C3)cc1)=N[C@@H](C)c1nnc(C)n1-2 [III-296] gave a GI50 of 50 to 500 nM. Cc1cc(N2CCN(CC3(O)CCN(c4ccc(C5=N[C@@H](C)c6nnc(C)n6-c6sc(C)c(C)c65)cc4)CC3)CC2)ccc1[C@H]1c2ccc(O)cc2CC[C@H]1c1ccc(F)cc1 [III-297] showed a GI50 of 50 to 500 nM. Work on Cc1cc(N2CCN(CC3(O)CCN(c4ccc(C5=N[C@@H](C)c6nnc(C)n6-c6sc(C)c(C)c65)cc4)CC3)CC2)ccc1[C@@H]1c2ccc(O)cc2CC[C@@H]1c1ccc(F)cc1 [III-298] yielded a GI50 of 50 to 500 nM. For Cc1sc2c(c1C)C(c1ccc(N3CCC(O)(CN4CCN(c5cc(F)c([C@@H]6c7ccc(O)cc7CC[C@@H]6c6ccccc6)cc5F)CC4)CC3)cc1)=N[C@@H](Cc1ncco1)c1nnc(C)n1-2 [III-299], the GI50 was < 50 nM. Cc1sc2c(c1C)C(c1ccc(N3CCC(O)(CN4CCN(c5cc(F)c([C@H]6c7ccc(O)cc7CC[C@H]6c6ccccc6)cc5F)CC4)CC3)cc1)=N[C@@H](Cc1ncco1)c1nnc(C)n1-2 [III-300] showed a GI50 of 50 to 500 nM. In the case of Cc1sc2c(c1C)C(c1ccc(N3CCC(O)(CN4CCN(c5ccc([C@H]6c7ccc(O)cc7CC[C@H]6c6ccc(F)cc6)cc5Cl)CC4)CC3)cc1)=N[C@@H](C)c1nnc(C)n1-2 [III-301], the GI50 was 50 to 500 nM.

The molecules below were run on T-Rex 293 cells having increased expression of estrogen receptor alpha protein (assay: Cellular growth inhibition assay, T-Rex 293 cells, (+) doxycycline). Settings: T-REx-293, 72 h, Table 7-A; T-Rex 293 cells with doxycycline (increased ERα expression); 72 hours; CellTiter-Glo; read-out: (+) Dox GI50.
Assay type: cell-based
Method in brief: (§1)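 ERα overexpression was switched on by 3 ng/mL doxycycline in a stably transfected T-Rex 293 clone, while uninduced cells served as the comparison line. Proliferation over 72 h of compound treatment was assessed by ATP luminescence, and GI50 values came from four-parameter curves.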
Cc1sc2c(c1C)C(c1ccc(N3CCC(O)(CN4CCN(c5ccc([C@H]6c7ccc(O)cc7CC[C@H]6c6c(F)cccc6F)c(F)c5)CC4)CC3)cc1)=N[C@@H](C)c1nnc(C)n1-2 [III-294] was tested, and the GI50 was 50 to 500 nM. Work on Cc1sc2c(c1C)C(c1ccc(N3CC4(CC(CN5CCN(c6cc(F)c([C@H]7c8ccc(O)cc8CC[C@H]7c7ccc(F)cc7)c(F)c6)CC5)C4)C3)cc1)=N[C@@H](C)c1nnc(C)n1-2 [III-295] yielded a GI50 of 500 to 2500 nM. Work on Cc1sc2c(c1C)C(c1ccc(N3CC4(CC(CN5CCN(c6cc(F)c([C@@H]7c8ccc(O)cc8CC[C@@H]7c7ccc(F)cc7)c(F)c6)CC5)C4)C3)cc1)=N[C@@H](C)c1nnc(C)n1-2 [III-296] yielded a GI50 of 50 to 500 nM. With Cc1cc(N2CCN(CC3(O)CCN(c4ccc(C5=N[C@@H](C)c6nnc(C)n6-c6sc(C)c(C)c65)cc4)CC3)CC2)ccc1[C@H]1c2ccc(O)cc2CC[C@H]1c1ccc(F)cc1 [III-297] the GI50 was 50 to 500 nM. Molecule Cc1cc(N2CCN(CC3(O)CCN(c4ccc(C5=N[C@@H](C)c6nnc(C)n6-c6sc(C)c(C)c65)cc4)CC3)CC2)ccc1[C@@H]1c2ccc(O)cc2CC[C@@H]1c1ccc(F)cc1 [III-298] has a GI50 of 50 to 500 nM. With Cc1sc2c(c1C)C(c1ccc(N3CCC(O)(CN4CCN(c5cc(F)c([C@@H]6c7ccc(O)cc7CC[C@@H]6c6ccccc6)cc5F)CC4)CC3)cc1)=N[C@@H](Cc1ncco1)c1nnc(C)n1-2 [III-299] the GI50 was < 50 nM. Cc1sc2c(c1C)C(c1ccc(N3CCC(O)(CN4CCN(c5cc(F)c([C@H]6c7ccc(O)cc7CC[C@H]6c6ccccc6)cc5F)CC4)CC3)cc1)=N[C@@H](Cc1ncco1)c1nnc(C)n1-2 [III-300] was tested, and the GI50 was < 50 nM. Work on Cc1sc2c(c1C)C(c1ccc(N3CCC(O)(CN4CCN(c5ccc([C@H]6c7ccc(O)cc7CC[C@H]6c6ccc(F)cc6)cc5Cl)CC4)CC3)cc1)=N[C@@H](C)c1nnc(C)n1-2 [III-301] yielded a GI50 of 500 to 2500 nM.

These molecules were tested on T-Rex 293 cells lacking increased expression of estrogen receptor alpha protein (assay: Cellular growth inhibition assay, T-Rex 293 cells, (−) doxycycline). Settings: T-REx-293, 72 h, Table 7-A; T-Rex 293 cells without doxycycline (lacking increased ERα expression); 72 hours; CellTiter-Glo; read-out: (−) Dox GI50.
Assay type: cell-based
Method in brief: as §1
Molecule Cc1sc2c(c1C)C(c1ccc(N3CCC(O)(CN4CCN(c5ccc([C@H]6c7ccc(O)cc7CC[C@H]6c6c(F)cccc6F)c(F)c5)CC4)CC3)cc1)=N[C@@H](C)c1nnc(C)n1-2 [III-294] has a GI50 of 50 to 500 nM. Work on Cc1sc2c(c1C)C(c1ccc(N3CC4(CC(CN5CCN(c6cc(F)c([C@H]7c8ccc(O)cc8CC[C@H]7c7ccc(F)cc7)c(F)c6)CC5)C4)C3)cc1)=N[C@@H](C)c1nnc(C)n1-2 [III-295] yielded a GI50 of 500 to 2500 nM. Cc1sc2c(c1C)C(c1ccc(N3CC4(CC(CN5CCN(c6cc(F)c([C@@H]7c8ccc(O)cc8CC[C@@H]7c7ccc(F)cc7)c(F)c6)CC5)C4)C3)cc1)=N[C@@H](C)c1nnc(C)n1-2 [III-296] showed a GI50 of 500 to 2500 nM. Cc1cc(N2CCN(CC3(O)CCN(c4ccc(C5=N[C@@H](C)c6nnc(C)n6-c6sc(C)c(C)c65)cc4)CC3)CC2)ccc1[C@H]1c2ccc(O)cc2CC[C@H]1c1ccc(F)cc1 [III-297] gave a GI50 of 50 to 500 nM. Molecule Cc1cc(N2CCN(CC3(O)CCN(c4ccc(C5=N[C@@H](C)c6nnc(C)n6-c6sc(C)c(C)c65)cc4)CC3)CC2)ccc1[C@@H]1c2ccc(O)cc2CC[C@@H]1c1ccc(F)cc1 [III-298] has a GI50 of 50 to 500 nM. With Cc1sc2c(c1C)C(c1ccc(N3CCC(O)(CN4CCN(c5cc(F)c([C@@H]6c7ccc(O)cc7CC[C@@H]6c6ccccc6)cc5F)CC4)CC3)cc1)=N[C@@H](Cc1ncco1)c1nnc(C)n1-2 [III-299] the GI50 was 50 to 500 nM. For Cc1sc2c(c1C)C(c1ccc(N3CCC(O)(CN4CCN(c5cc(F)c([C@H]6c7ccc(O)cc7CC[C@H]6c6ccccc6)cc5F)CC4)CC3)cc1)=N[C@@H](Cc1ncco1)c1nnc(C)n1-2 [III-300], the GI50 was 50 to 500 nM. Work on Cc1sc2c(c1C)C(c1ccc(N3CCC(O)(CN4CCN(c5ccc([C@H]6c7ccc(O)cc7CC[C@H]6c6ccc(F)cc6)cc5Cl)CC4)CC3)cc1)=N[C@@H](C)c1nnc(C)n1-2 [III-301] yielded a GI50 of 500 to 2500 nM.

Source: patent publication US12558428B2, “Heterobifunctional compounds and their use in treating disease” (Halda Therapeutics OpCo, Inc., priority 2024, dated 2026)
